The record followed here is patent US12539292B2, “BRM targeting compounds and associated methods of use” (Arvinas Operations, Inc., priority 2018, dated 2026).

In the test the target is T1, BRM (Homo sapiens, UniProt P51531).
T1 construct: In-Cell Western Screen of BRM Degradation in SW1573 Cells; endogenous in cells; host or cells: SW1573
Kind of test: In-cell Western screen of BRM degradation in SW1573 cells (Dmax and DC50). It counts as cell-based. To be noted: BRM degradation, SW1573 cells; for DC50: read-out: DC50; for Dmax: tested at the top concentration of between 0.3 and 10 μM, read-out: Dmax (%) (% degraded). Put shortly:
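BRM levels were read by LI-COR in-cell Western after two-channel (800/680 nm) immunostaining of fixed, Triton-permeabilised SW1573 cells.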

Where only a bound is given, the exact number is not on record here.

In general, DC50 refers to the concentration giving 50% degradation. As a reminder, the Dmax is the greatest extent of degradation seen.

T1 sequence (P51531 whole entry): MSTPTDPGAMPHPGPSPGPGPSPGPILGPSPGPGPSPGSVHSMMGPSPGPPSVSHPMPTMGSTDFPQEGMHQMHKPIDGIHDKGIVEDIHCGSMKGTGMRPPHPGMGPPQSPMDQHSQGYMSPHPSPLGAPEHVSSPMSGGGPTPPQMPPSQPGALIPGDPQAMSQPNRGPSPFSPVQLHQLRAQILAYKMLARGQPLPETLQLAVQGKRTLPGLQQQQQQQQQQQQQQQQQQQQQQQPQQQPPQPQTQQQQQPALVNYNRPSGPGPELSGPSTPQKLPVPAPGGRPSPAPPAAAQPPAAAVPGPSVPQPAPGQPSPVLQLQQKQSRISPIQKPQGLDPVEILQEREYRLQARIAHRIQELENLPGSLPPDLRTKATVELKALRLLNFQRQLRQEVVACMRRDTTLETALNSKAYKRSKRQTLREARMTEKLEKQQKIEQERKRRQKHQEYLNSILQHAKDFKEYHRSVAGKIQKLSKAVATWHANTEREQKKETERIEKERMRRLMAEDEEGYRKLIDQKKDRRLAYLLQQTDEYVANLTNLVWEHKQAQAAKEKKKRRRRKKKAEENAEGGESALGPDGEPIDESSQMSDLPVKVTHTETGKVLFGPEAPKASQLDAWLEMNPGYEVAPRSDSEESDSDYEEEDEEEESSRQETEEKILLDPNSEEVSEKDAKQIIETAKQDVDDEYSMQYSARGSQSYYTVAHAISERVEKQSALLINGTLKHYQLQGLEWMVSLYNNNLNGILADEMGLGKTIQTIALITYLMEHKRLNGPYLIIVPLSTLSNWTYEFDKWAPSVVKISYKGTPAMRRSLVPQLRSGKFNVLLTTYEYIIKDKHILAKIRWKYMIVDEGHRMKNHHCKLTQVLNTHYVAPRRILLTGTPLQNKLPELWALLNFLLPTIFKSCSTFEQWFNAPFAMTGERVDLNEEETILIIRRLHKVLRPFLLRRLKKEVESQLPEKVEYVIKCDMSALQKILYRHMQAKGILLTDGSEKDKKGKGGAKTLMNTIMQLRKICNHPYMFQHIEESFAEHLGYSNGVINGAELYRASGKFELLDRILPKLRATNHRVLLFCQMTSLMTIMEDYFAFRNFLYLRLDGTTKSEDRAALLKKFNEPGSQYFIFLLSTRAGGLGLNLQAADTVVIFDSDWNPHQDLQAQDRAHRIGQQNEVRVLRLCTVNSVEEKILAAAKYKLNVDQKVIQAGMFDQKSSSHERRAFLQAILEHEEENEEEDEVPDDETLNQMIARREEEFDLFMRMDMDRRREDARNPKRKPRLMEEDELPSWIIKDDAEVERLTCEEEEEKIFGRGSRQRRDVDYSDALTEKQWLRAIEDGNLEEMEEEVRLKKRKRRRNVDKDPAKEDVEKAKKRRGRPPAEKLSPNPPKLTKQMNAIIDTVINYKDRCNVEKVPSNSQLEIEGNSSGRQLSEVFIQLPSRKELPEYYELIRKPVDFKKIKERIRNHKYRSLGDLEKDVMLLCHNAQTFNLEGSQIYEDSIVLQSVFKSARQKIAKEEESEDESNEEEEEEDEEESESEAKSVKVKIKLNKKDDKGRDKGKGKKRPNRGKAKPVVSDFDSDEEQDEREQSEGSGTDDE

For `Cc1cnsc1-c1ccc([C@H](C)NC(=O)[C@@H]2C[C@@H](O)CN2C(=O)[C@H](c2cc(OCCN3CCN(CCOc4cc(N5C6CCC5CN(c5cc(-c7ccccc7O)nnc5N)C6)ccn4)CC3)no2)C(C)C)cc1` [compound 265, (2S,4R)-1-((2S)-2-(3-(2-(4-(2-((4-(3-(3-amino-6-(2-hydroxyphenyl)pyridazin-4-yl)-3,8-diazabicyclo[3.2.1]octan-8-yl)pyridin-2-yl)oxy)ethyl)piperazin-1-yl)ethoxy)isoxazol-5-yl)-3-methylbutanoyl)-4-hydroxy-N-((S)-1-(4-(4-methylisothiazol-5-yl)phenyl)ethyl)pyrrolidine-2-carboxamide], the DC50 is above 30 nM.
`Cc1cnsc1-c1ccc([C@H](C)NC(=O)[C@@H]2C[C@@H](O)CN2C(=O)[C@@H](c2cc(OCCN3CCN(CCOc4cc(N5C6CCC5CN(c5cc(-c7ccccc7O)nnc5N)C6)ccn4)CC3)no2)C(C)C)cc1` [compound 266, (2S,4R)-1-((2R)-2-(3-(2-(4-(2-((4-(3-(3-amino-6-(2-hydroxyphenyl)pyridazin-4-yl)-3,8-diazabicyclo[3.2.1]octan-8-yl)pyridin-2-yl)oxy)ethyl)piperazin-1-yl)ethoxy)isoxazol-5-yl)-3-methylbutanoyl)-4-hydroxy-N-((S)-1-(4-(4-methylisothiazol-5-yl)phenyl)ethyl)pyrrolidine-2-carboxamide]: the DC50 was below 2.5 nM and the Dmax was above 75%.
With `Cc1ncsc1-c1ccc([C@@H](NC(=O)[C@@H]2C[C@@H](O)CN2C(=O)[C@H](c2cc(OCCN3CCC(O[C@H]4C[C@H](Oc5cc(N6C7CCC6CN(c6cc(-c8ccccc8O)nnc6N)C7)ccn5)C4)CC3)no2)C(C)C)C(F)F)cc1` [compound 267, (2S,4R)-1-((2S)-2-(3-(2-(4-((1r,3S)-3-((4-(3-(3-amino-6-(2-hydroxyphenyl)pyridazin-4-yl)-3,8-diazabicyclo[3.2.1]octan-8-yl)pyridin-2-yl)oxy)cyclobutoxy)piperidin-1-yl)ethoxy)isoxazol-5-yl)-3-methylbutanoyl)-N-((R)-2,2-difluoro-1-(4-(4-methylthiazol-5-yl)phenyl)ethyl)-4-hydroxypyrrolidine-2-carboxamide], the DC50 fell in the range of 2.5 to 10 nM and the Dmax is above 75%.
Consider `Cc1ncsc1-c1ccc([C@@H](NC(=O)[C@@H]2C[C@@H](O)CN2C(=O)[C@@H](c2cc(OCCN3CCC(O[C@H]4C[C@H](Oc5cc(N6C7CCC6CN(c6cc(-c8ccccc8O)nnc6N)C7)ccn5)C4)CC3)no2)C(C)C)C(F)F)cc1` [compound 268, (2S,4R)-1-((2R)-2-(3-(2-(4-((1r,3R)-3-((4-(3-(3-amino-6-(2-hydroxyphenyl)pyridazin-4-yl)-3,8-diazabicyclo[3.2.1]octan-8-yl)pyridin-2-yl)oxy)cyclobutoxy)piperidin-1-yl)ethoxy)isoxazol-5-yl)-3-methylbutanoyl)-N-((R)-2,2-difluoro-1-(4-(4-methylthiazol-5-yl)phenyl)ethyl)-4-hydroxypyrrolidine-2-carboxamide], for which the 50% degradation concentration (DC50) is below 2.5 nM and the Dmax was above 75%.
Regarding `Cc1ncsc1-c1ccc([C@H](C)NC(=O)[C@@H]2C[C@@H](O)CN2C(=O)[C@H](c2onc(OCCN3CCC(O[C@H]4C[C@H](Oc5cc(N6C7CCC6CN(c6cc(-c8ccccc8O)nnc6N)C7)ccn5)C4)CC3)c2F)C(C)C)cn1` [compound 269, (2S,4R)-1-((2S)-2-(3-(2-(4-((1r,3S)-3-((4-(3-(3-amino-6-(2-hydroxyphenyl)pyridazin-4-yl)-3,8-diazabicyclo[3.2.1]octan-8-yl)pyridin-2-yl)oxy)cyclobutoxy)piperidin-1-yl)ethoxy)-4-fluoroisoxazol-5-yl)-3-methylbutanoyl)-4-hydroxy-N-((S)-1-(6-(4-methylthiazol-5-yl)pyridin-3-yl)ethyl)pyrrolidine-2-carboxamide], the DC50 is above 30 nM.
Take `Cc1ncsc1-c1ccc([C@H](C)NC(=O)[C@@H]2C[C@@H](O)CN2C(=O)[C@@H](c2onc(OCCN3CCC(O[C@H]4C[C@H](Oc5cc(N6C7CCC6CN(c6cc(-c8ccccc8O)nnc6N)C7)ccn5)C4)CC3)c2F)C(C)C)cn1` [compound 270, (2S,4R)-1-((2R)-2-(3-(2-(4-((1r,3R)-3-((4-(3-(3-amino-6-(2-hydroxyphenyl)pyridazin-4-yl)-3,8-diazabicyclo[3.2.1]octan-8-yl)pyridin-2-yl)oxy)cyclobutoxy)piperidin-1-yl)ethoxy)-4-fluoroisoxazol-5-yl)-3-methylbutanoyl)-4-hydroxy-N-((S)-1-(6-(4-methylthiazol-5-yl)pyridin-3-yl)ethyl)pyrrolidine-2-carboxamide]: the DC50 was below 2.5 nM and the Dmax is above 75%.
Turning to `Cc1ncsc1-c1ccc([C@H](C)NC(=O)[C@@H]2C[C@@H](O)CN2C(=O)[C@H](c2cc(OCC(=O)N3CCC(O[C@H]4C[C@H](Oc5cc(N6C7CCC6CN(c6cc(-c8ccccc8O)nnc6N)C7)ccn5)C4)CC3)no2)C(C)C)cn1` [compound 271, (2S,4R)-1-((2S)-2-(3-(2-(4-((1r,3S)-3-((4-(3-(3-amino-6-(2-hydroxyphenyl)pyridazin-4-yl)-3,8-diazabicyclo[3.2.1]octan-8-yl)pyridin-2-yl)oxy)cyclobutoxy)piperidin-1-yl)-2-oxoethoxy)isoxazol-5-yl)-3-methylbutanoyl)-4-hydroxy-N-((S)-1-(6-(4-methylthiazol-5-yl)pyridin-3-yl)ethyl)pyrrolidine-2-carboxamide], the DC50 was above 30 nM.
Take `Cc1ncsc1-c1ccc([C@@H](COCC2CCOCC2)NC(=O)[C@@H]2C[C@@H](O)CN2C(=O)[C@H](c2cc(OCCN3CCN(CCOc4cc(N5C6CCC5CN(c5cc(-c7ccccc7O)nnc5N)C6)ccn4)CC3)no2)C(C)C)cc1` [compound 272, (2S,4R)-1-((2S)-2-(3-(2-(4-(2-((4-(3-(3-amino-6-(2-hydroxyphenyl)pyridazin-4-yl)-3,8-diazabicyclo[3.2.1]octan-8-yl)pyridin-2-yl)oxy)ethyl)piperazin-1-yl)ethoxy)isoxazol-5-yl)-3-methylbutanoyl)-4-hydroxy-N-((S)-1-(4-(4-methylthiazol-5-yl)phenyl)-2-((tetrahydro-2H-pyran-4-yl)methoxy)ethyl)pyrrolidine-2-carboxamide]: the DC50 was above 30 nM.
`Cc1ncsc1-c1ccc([C@@H](COCC2CCOCC2)NC(=O)[C@@H]2C[C@@H](O)CN2C(=O)[C@@H](c2cc(OCCN3CCN(CCOc4cc(N5C6CCC5CN(c5cc(-c7ccccc7O)nnc5N)C6)ccn4)CC3)no2)C(C)C)cc1` [compound 273, (2S,4R)-1-((2R)-2-(3-(2-(4-(2-((4-(3-(3-amino-6-(2-hydroxyphenyl)pyridazin-4-yl)-3,8-diazabicyclo[3.2.1]octan-8-yl)pyridin-2-yl)oxy)ethyl)piperazin-1-yl)ethoxy)isoxazol-5-yl)-3-methylbutanoyl)-4-hydroxy-N-((S)-1-(4-(4-methylthiazol-5-yl)phenyl)-2-((tetrahydro-2H-pyran-4-yl)methoxy)ethyl)pyrrolidine-2-carboxamide]: the DC50 was below 2.5 nM and the Dmax is above 75%.
Regarding `Cc1cnnn1-c1ccc([C@H](C)NC(=O)[C@@H]2C[C@@H](O)CN2C(=O)[C@H](c2cc(OCCN3CCN(CCOc4cc(N5C6CCC5CN(c5cc(-c7ccccc7O)nnc5N)C6)ccn4)CC3)no2)C(C)C)cc1` [compound 274, (2S,4R)-1-((2S)-2-(3-(2-(4-(2-((4-(3-(3-amino-6-(2-hydroxyphenyl)pyridazin-4-yl)-3,8-diazabicyclo[3.2.1]octan-8-yl)pyridin-2-yl)oxy)ethyl)piperazin-1-yl)ethoxy)isoxazol-5-yl)-3-methylbutanoyl)-4-hydroxy-N-((S)-1-(4-(5-methyl-1H-1,2,3-triazol-1-yl)phenyl)ethyl)pyrrolidine-2-carboxamide], the DC50 is above 30 nM.
With `Cc1cnnn1-c1ccc([C@H](C)NC(=O)[C@@H]2C[C@@H](O)CN2C(=O)[C@@H](c2cc(OCCN3CCN(CCOc4cc(N5C6CCC5CN(c5cc(-c7ccccc7O)nnc5N)C6)ccn4)CC3)no2)C(C)C)cc1` [compound 275, (2S,4R)-1-((2R)-2-(3-(2-(4-(2-((4-(3-(3-amino-6-(2-hydroxyphenyl)pyridazin-4-yl)-3,8-diazabicyclo[3.2.1]octan-8-yl)pyridin-2-yl)oxy)ethyl)piperazin-1-yl)ethoxy)isoxazol-5-yl)-3-methylbutanoyl)-4-hydroxy-N-((S)-1-(4-(5-methyl-1H-1,2,3-triazol-1-yl)phenyl)ethyl)pyrrolidine-2-carboxamide], the DC50 was 10 to 30 nM and the Dmax is above 75%.
As for `Cc1nccn1-c1ccc([C@H](C)NC(=O)[C@@H]2C[C@@H](O)CN2C(=O)[C@H](c2cc(OC/C=C/c3ccc(O[C@H]4C[C@H](Oc5cc(N6C7CCC6CN(c6cc(-c8ccccc8O)nnc6N)C7)ccn5)C4)cn3)no2)C(C)C)cc1` [compound 276, (2S,4R)-1-((2S)-2-(3-(((E)-3-(5-((1r,3S)-3-((4-(3-(3-amino-6-(2-hydroxyphenyl)pyridazin-4-yl)-3,8-diazabicyclo[3.2.1]octan-8-yl)pyridin-2-yl)oxy)cyclobutoxy)pyridin-2-yl)allyl)oxy)isoxazol-5-yl)-3-methylbutanoyl)-4-hydroxy-N-((S)-1-(4-(2-methyl-1H-imidazol-1-yl)phenyl)ethyl)pyrrolidine-2-carboxamide], the DC50 is above 30 nM.
As to `Cc1nccn1-c1ccc([C@H](C)NC(=O)[C@@H]2C[C@@H](O)CN2C(=O)[C@@H](c2cc(OC/C=C/c3ccc(O[C@H]4C[C@H](Oc5cc(N6C7CCC6CN(c6cc(-c8ccccc8O)nnc6N)C7)ccn5)C4)cn3)no2)C(C)C)cc1` [compound 277, (2S,4R)-1-((2R)-2-(3-(((E)-3-(5-((1r,3R)-3-((4-(3-(3-amino-6-(2-hydroxyphenyl)pyridazin-4-yl)-3,8-diazabicyclo[3.2.1]octan-8-yl)pyridin-2-yl)oxy)cyclobutoxy)pyridin-2-yl)allyl)oxy)isoxazol-5-yl)-3-methylbutanoyl)-4-hydroxy-N-((S)-1-(4-(2-methyl-1H-imidazol-1-yl)phenyl)ethyl)pyrrolidine-2-carboxamide], the DC50 is below 2.5 nM and the Dmax was above 75%.
